Experimental data as given in US12679878B2, “CRF2 receptor agonists and their use in therapy” (SANOFI, priority 2020, dated 2026).
Read-outs that look alike come from different tables or passages of the source. Starred links: 1 amine or outer side, 2 acyl side, 3 side chain; linkers in the order of their positions; H or OH if unused. Non-standard residues stand in square brackets, D forms with d. Residues, ends and D or L forms follow the SMILES beside them. Groups on a side chain read outwards from the residue. *: point of attachment. C18 diacid = O=C(O)CCCCCCCCCCCCCCCCC(=O)*; γGlu = O=C(O)[C@H](CCC(=O)[*:2])N[*:1]; AEEA = NCCOCCOCC(=O)O; Aib = CC(C)(N)C(=O)O

How the values were obtained:
CRF1R receptor = target: T1, CRF1R receptor (Homo sapiens, UniProt P34998); experiment: cAMP activity at anti-target CRF1R, CHO-K1 cell line clone 2 (Example 19.10); format: cell-based; settings: CRF1R CHO-K1 clone 2; for EC50: 0% HSA, read-out: EC50 [nM] 0% HSA; for Emax: 100% = Sauvagine at 100 nM
T1 construct: host or cells: CHO-K1 clone 2
T1 sequence (P34998 24-415): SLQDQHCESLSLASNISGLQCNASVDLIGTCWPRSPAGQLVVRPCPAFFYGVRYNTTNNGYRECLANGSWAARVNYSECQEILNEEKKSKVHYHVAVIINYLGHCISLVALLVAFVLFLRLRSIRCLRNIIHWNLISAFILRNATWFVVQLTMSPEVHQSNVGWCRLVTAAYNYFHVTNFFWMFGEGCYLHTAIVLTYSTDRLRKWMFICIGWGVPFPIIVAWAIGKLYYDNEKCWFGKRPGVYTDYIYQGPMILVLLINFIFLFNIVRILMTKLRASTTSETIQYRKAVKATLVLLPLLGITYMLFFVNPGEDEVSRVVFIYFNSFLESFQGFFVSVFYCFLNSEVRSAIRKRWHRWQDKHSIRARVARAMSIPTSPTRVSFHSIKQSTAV
How it was run: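 A CRF1R-overexpressing CHO-K1 line (clone 2) was grown in F12/10% FBS/G418 and frozen in aliquots before use. The cAMP assay followed the preceding procedure, with 100% activation defined by Sauvagine at 100 nM.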

human CRF2α receptor = target: T2, human CRF2α receptor (Homo sapiens, UniProt Q13324); experiment: cAMP agonism at human CRF2 α receptor in TeloHEAC cells (Example 7); format: cell-based; settings: cAMP HTRF, TeloHEAC cells stably expressing human CRF2 α
T2 construct: expressed in transfected cells; host or cells: TeloHEAC
T2 sequence (Q13324 1-411): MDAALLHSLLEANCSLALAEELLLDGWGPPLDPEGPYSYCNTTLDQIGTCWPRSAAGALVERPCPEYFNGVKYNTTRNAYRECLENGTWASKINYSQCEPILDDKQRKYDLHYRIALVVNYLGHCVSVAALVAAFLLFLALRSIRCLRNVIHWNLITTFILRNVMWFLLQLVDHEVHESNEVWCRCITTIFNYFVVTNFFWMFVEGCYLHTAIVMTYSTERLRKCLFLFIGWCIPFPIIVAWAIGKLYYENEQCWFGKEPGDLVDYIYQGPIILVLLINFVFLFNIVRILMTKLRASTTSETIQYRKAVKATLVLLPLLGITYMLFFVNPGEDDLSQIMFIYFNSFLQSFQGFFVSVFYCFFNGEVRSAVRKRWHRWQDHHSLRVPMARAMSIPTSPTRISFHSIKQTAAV
How it was run: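 Thawed frozen stably transfected cells in HBSS/20 mM HEPES (0% or 0.1% HSA) plus 2 mM IBMX were exposed to compound at 2000 cells/well for 30 min at room temperature. Intracellular cAMP was read by HTRF (665/620 nm ratio) after 1 h lysis; EC50 was derived with 1000 nM urocortin 2 set as 100%.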

[1] = 0% HSA, read-out: EC50 [nM], 0% HSA

EC50 (CRF1R receptor) [nM] | Emax (CRF1R receptor) [%] | EC50 (human CRF2α receptor; [1]) [nM] | EC50 (human CRF2α receptor; 0.1% HSA, read-out: EC50 [nM], 0.1% HSA) [nM] | SMILES
> 100 | 9 | 0.07 | – | CC[C@H](C)[C@H](N)C(=O)N[C@H](C(=O)N[C@@H](CC(C)C)C(=O)N[C@@H](CO)C(=O)N[C@@H](CC(C)C)C(=O)N[C@@H](CC(=O)O)C(=O)N[C@@H](C(=O)N1CCC[C@H]1C(=O)N[C@H](C(=O)N[C@@H](CCCCN)C(=O)N[C@@H](CC(C)C)C(=O)N[C@@H](CCCCNC(=O)COCCOCCNC(=O)COCCOCCNC(=O)CC[C@H](NC(=O)CCCCCCCCCCCCCCCCC(=O)O)C(=O)O)C(=O)N[C@@H](CCC(N)=O)C(=O)N[C@H](C(=O)N[C@@H](CC(C)C)C(=O)N[C@@H](CC(C)C)C(=O)N[C@@H](CCCCN)C(=O)N[C@@H](CCC(N)=O)C(=O)N[C@@H](CCC(=O)O)C(=O)N[C@@H](CCCNC(=N)N)C(=O)N[C@@H](CCC(N)=O)C(=O)N[C@@H](CCCCN)C(=O)N[C@@H](CCCCN)C(=O)N[C@@H](CCC(N)=O)C(=O)N[C@@H](CCCNC(=N)N)C(=O)N[C@@H](CCC(=O)O)C(=O)N[C@@H](CCC(N)=O)C(=O)N[C@@H](C)C(=O)N[C@@H](CCC(=O)O)C(=O)N[C@H](C(=O)N[C@@H](CC(N)=O)C(=O)N[C@@H](CCCCN)C(=O)N[C@@H](CCC(N)=O)C(=O)N[C@H](C(=O)N[C@@H](CC(C)C)C(=O)N[C@@H](C)C(=O)N[C@@H](CCC(N)=O)C(=O)N[C@H](C(N)=O)C(C)C)[C@@H](C)CC)[C@@H](C)O)[C@@H](C)CC)[C@@H](C)CC)C(C)C)C(C)C [compound 102] (H-IVLSLD[dV]PIKLK([AEEA-AEEA-γGlu-C18 diacid])QILLKQERQKKQREQAETNKQILAQV-NH2; N-terminus assumed)
> 100 | 14 | 0.84 | – | CC[C@H](C)[C@H](N)C(=O)N[C@H](C(=O)N[C@@H](CC(C)C)C(=O)N[C@@H](CO)C(=O)N[C@@H](CC(C)C)C(=O)N[C@@H](CC(=O)O)C(=O)N[C@H](C(=O)N1CCC[C@H]1C(=O)N[C@H](C(=O)N[C@@H](CCCCN)C(=O)N[C@@H](CC(C)C)C(=O)N[C@@H](CCCCNC(=O)COCCOCCNC(=O)COCCOCCNC(=O)CC[C@H](NC(=O)CCCCCCCCCCCCCCCCC(=O)O)C(=O)O)C(=O)N[C@@H](CCC(N)=O)C(=O)N[C@H](C(=O)N[C@@H](CC(C)C)C(=O)N[C@@H](CC(C)C)C(=O)N[C@@H](CCC(=O)O)C(=O)N[C@@H](CCC(N)=O)C(=O)N[C@@H](CCC(=O)O)C(=O)N[C@@H](CCCNC(=N)N)C(=O)N[C@@H](CCC(N)=O)C(=O)N[C@@H](CCCCN)C(=O)NC(C)(C)C(=O)N[C@@H](CCC(N)=O)C(=O)N[C@@H](CCCNC(=N)N)C(=O)N[C@@H](CCC(=O)O)C(=O)N[C@@H](CCC(N)=O)C(=O)N[C@@H](C)C(=O)N[C@@H](CCC(=O)O)C(=O)N[C@H](C(=O)N[C@@H](CC(N)=O)C(=O)N[C@@H](CCCCN)C(=O)N[C@@H](CCC(N)=O)C(=O)N[C@H](C(=O)N[C@@H](CC(C)C)C(=O)N[C@@H](C)C(=O)N[C@@H](CCC(N)=O)C(=O)N[C@H](C(N)=O)C(C)C)[C@@H](C)CC)[C@@H](C)O)[C@@H](C)CC)[C@@H](C)CC)C(C)C)C(C)C [compound 103] (H-IVLSLDVPIKLK([AEEA-AEEA-γGlu-C18 diacid])QILLEQERQK[Aib]QREQAETNKQILAQV-NH2)
> 100 | 3.7 | 0.32 | – | CC[C@H](C)[C@H](N)C(=O)N[C@H](C(=O)N[C@@H](CC(C)C)C(=O)N[C@@H](CO)C(=O)N[C@@H](CC(C)C)C(=O)N[C@@H](CC(=O)O)C(=O)N[C@H](C(=O)N1CCC[C@H]1C(=O)N[C@H](C(=O)N[C@@H](CCCCN)C(=O)N[C@@H](CC(C)C)C(=O)N[C@@H](CCCCNC(=O)COCCOCCNC(=O)COCCOCCNC(=O)CC[C@H](NC(=O)CCCCCCCCCCCCCCCCC(=O)O)C(=O)O)C(=O)N[C@@H](CCC(N)=O)C(=O)N[C@H](C(=O)N[C@@H](CC(C)C)C(=O)N[C@@H](CC(C)C)C(=O)N[C@@H](CCCCN)C(=O)N[C@@H](CCC(N)=O)C(=O)N[C@@H](CCC(=O)O)C(=O)N[C@@H](CCCNC(=N)N)C(=O)N[C@@H](CCC(N)=O)C(=O)N[C@@H](CCCCN)C(=O)NC(C)(C)C(=O)N[C@@H](CCC(N)=O)C(=O)N[C@@H](CCCNC(=N)N)C(=O)N[C@@H](CCC(=O)O)C(=O)N[C@@H](CCC(N)=O)C(=O)N[C@@H](C)C(=O)N[C@@H](CCC(=O)O)C(=O)N[C@H](C(=O)N[C@@H](CC(N)=O)C(=O)N[C@@H](CCCCN)C(=O)N[C@@H](CCC(N)=O)C(=O)N[C@H](C(=O)N[C@@H](CC(C)C)C(=O)N[C@@H](C)C(=O)N[C@@H](CCC(N)=O)C(=O)N[C@H](C(N)=O)C(C)C)[C@@H](C)CC)[C@@H](C)O)[C@@H](C)CC)[C@@H](C)CC)C(C)C)C(C)C [compound 104] (H-IVLSLDVPIKLK([AEEA-AEEA-γGlu-C18 diacid])QILLKQERQK[Aib]QREQAETNKQILAQV-NH2)
> 100 | 15.4 | 0.41 | 15.3 | CC[C@H](C)[C@H](N)C(=O)N[C@H](C(=O)N[C@@H](CC(C)C)C(=O)N[C@@H](CO)C(=O)N[C@@H](CC(C)C)C(=O)N[C@@H](CC(=O)O)C(=O)N[C@H](C(=O)N1CCC[C@H]1C(=O)N[C@H](C(=O)N[C@@H](CCCCN)C(=O)N[C@@H](CC(C)C)C(=O)N[C@@H](CCCCNC(=O)COCCOCCNC(=O)COCCOCCNC(=O)CC[C@H](NC(=O)CCCCCCCCCCCCCCCCC(=O)O)C(=O)O)C(=O)N[C@@H](CCC(N)=O)C(=O)N[C@H](C(=O)N[C@@H](CC(C)C)C(=O)N[C@@H](CC(C)C)C(=O)N[C@@H](CCC(=O)O)C(=O)N[C@@H](CCC(N)=O)C(=O)N[C@@H](CCC(=O)O)C(=O)N[C@@H](CCCNC(=N)N)C(=O)N[C@@H](CCC(N)=O)C(=O)N[C@@H](CCCCN)C(=O)NC(C)(C)C(=O)N[C@@H](CCC(N)=O)C(=O)N[C@@H](CCCNC(=N)N)C(=O)N[C@@H](CCC(N)=O)C(=O)N[C@@H](CCC(N)=O)C(=O)N[C@@H](C)C(=O)N[C@@H](CCC(=O)O)C(=O)N[C@H](C(=O)N[C@@H](CC(N)=O)C(=O)N[C@@H](CCCCN)C(=O)N[C@@H](CCC(N)=O)C(=O)N[C@H](C(=O)N[C@@H](CC(C)C)C(=O)N[C@@H](C)C(=O)N[C@@H](CCC(N)=O)C(=O)N[C@H](C(N)=O)C(C)C)[C@@H](C)CC)[C@@H](C)O)[C@@H](C)CC)[C@@H](C)CC)C(C)C)C(C)C [compound 105] (H-IVLSLDVPIKLK([AEEA-AEEA-γGlu-C18 diacid])QILLEQERQK[Aib]QRQQAETNKQILAQV-NH2)
